Our source for the Ratio IC50, inhibition and IC50 values is ChEMBL document CHEMBL2380224, “Fragment-based ligand design of novel potent inhibitors of tankyrases” (J Med Chem, 2013).

For test [1], the species on record is Homo sapiens. Description: Selectivity ratio of IC50 for TNKS1 (unknown origin) to IC50 for TNKS2 PARP domain (947 to 1162) (unknown origin).
Test [2] addresses T1, Protein mono-ADP-ribosyltransferase PARP11 (Homo sapiens) (UniProt Q9NR21).
T1 sequence (whole entry): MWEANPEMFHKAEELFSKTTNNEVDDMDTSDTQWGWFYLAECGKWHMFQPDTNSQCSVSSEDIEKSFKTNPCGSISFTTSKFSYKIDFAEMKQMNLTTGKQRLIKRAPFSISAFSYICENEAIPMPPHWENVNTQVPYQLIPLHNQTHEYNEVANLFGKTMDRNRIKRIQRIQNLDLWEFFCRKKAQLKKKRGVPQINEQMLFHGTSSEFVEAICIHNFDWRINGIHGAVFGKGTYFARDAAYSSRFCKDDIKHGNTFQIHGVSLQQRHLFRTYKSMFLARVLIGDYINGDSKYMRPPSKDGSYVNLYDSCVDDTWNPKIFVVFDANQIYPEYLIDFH
Kind of test: Inhibition of PARP11 (unknown origin) at 10 uM relative to control.

For test [3], the species on record is Homo sapiens. Description: Selectivity ratio of IC50 for PARP2 (unknown origin) to IC50 for TNKS2 PARP domain (947 to 1162) (unknown origin).
Test [4] has as its target T2, Poly [ADP-ribose] polymerase tankyrase-1 (Homo sapiens, UniProt O95271).
T2 sequence (O95271 whole entry): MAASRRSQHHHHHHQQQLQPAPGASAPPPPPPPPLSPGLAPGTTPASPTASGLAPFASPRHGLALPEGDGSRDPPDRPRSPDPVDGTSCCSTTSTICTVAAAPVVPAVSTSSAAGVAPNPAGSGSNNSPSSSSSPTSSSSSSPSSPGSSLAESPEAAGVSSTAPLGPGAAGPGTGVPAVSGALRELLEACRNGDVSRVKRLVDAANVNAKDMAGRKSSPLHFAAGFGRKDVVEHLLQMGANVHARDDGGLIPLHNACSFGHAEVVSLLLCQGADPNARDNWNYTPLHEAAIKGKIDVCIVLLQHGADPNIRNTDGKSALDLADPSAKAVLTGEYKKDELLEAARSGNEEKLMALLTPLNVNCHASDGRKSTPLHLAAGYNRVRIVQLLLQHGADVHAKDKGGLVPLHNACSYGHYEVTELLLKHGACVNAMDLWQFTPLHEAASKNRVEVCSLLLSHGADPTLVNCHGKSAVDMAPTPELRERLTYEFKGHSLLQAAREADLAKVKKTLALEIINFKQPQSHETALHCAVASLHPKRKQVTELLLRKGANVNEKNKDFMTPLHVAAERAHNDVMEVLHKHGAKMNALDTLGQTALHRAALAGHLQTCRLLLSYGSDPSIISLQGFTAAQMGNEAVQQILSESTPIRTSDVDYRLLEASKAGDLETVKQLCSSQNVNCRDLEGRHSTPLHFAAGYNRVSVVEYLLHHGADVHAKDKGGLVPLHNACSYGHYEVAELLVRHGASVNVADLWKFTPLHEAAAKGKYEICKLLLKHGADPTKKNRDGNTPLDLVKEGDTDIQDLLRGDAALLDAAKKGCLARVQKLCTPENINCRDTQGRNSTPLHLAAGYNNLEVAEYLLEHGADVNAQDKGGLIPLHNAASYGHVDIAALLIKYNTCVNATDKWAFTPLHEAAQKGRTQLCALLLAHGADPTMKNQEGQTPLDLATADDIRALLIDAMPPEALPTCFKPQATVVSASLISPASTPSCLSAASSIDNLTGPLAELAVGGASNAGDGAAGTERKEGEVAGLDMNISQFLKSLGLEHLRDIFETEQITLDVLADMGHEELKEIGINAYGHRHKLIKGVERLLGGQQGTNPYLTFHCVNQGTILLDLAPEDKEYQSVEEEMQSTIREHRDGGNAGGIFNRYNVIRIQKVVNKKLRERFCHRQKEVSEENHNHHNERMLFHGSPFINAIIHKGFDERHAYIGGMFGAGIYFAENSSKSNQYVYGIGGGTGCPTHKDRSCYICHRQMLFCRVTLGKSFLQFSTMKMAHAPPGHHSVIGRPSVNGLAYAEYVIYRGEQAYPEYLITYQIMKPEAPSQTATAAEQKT
Description: Inhibition of TNKS1 (unknown origin).

For test [5], the species on record is Homo sapiens. Kind of test: Selectivity ratio of IC50 for PARP3 (unknown origin) to IC50 for TNKS2 PARP domain (947 to 1162) (unknown origin).

A word on the inhibition: it is the drop in the measured response relative to a control, in per cent. A lower inhibition goes with a weak effect. As usually defined, the IC50 is the concentration needed to halve the response being measured. Low readings indicate greater potency, high ones weaker potency. As to `Cc1cc(=O)[nH]c2cc(-c3ccccc3F)ccc12`, the Ratio IC50 in the test listed under Homo sapiens [1] was 16.5; in the test filed under Homo sapiens [3], more than 100; in the test filed under Homo sapiens [5] it was more than 100. For the same compound, the inhibition in test [2] was determined as 23%. The compound also returned a concentration for half-maximal inhibition (IC50) in test [4] of 860 nM.
